# Results taken from US10583209B2, “Hyperpolarized 1-13C-1,1-bis(acetoxy(methyl))-2,2′-cyclopropane as metabolic marker for MR” (BRACCO IMAGING S.P.A., priority 2013, dated 2020).
# How the values were obtained:
# [1] = Liquid-state 13C-NMR after dissolution of hyperpolarized sample (T1, polarization, hydrolysis); type: physicochemical; settings: for T1, 37 C. 14.1 T: 13C longitudinal relaxation time, in s (unit assumed)
# Protocol: C) The sample was dissolved in 5 ml phosphate buffer (40 mM, pH 7.3).
# [2] = test system: Human prostate cancer cells (PC-3) in comparison to healthy human prostate cells (PNT-1A); experiment: In cell DNP conversion in PC-3 cells compared with healthy PNT-1A cells; type: cell-based; settings: 10 million cells, approx. 3.5 mM substrate
# Protocol: The experiments were performed with a polarization of 1-^13C-1,1-Bis(acetoxy(methyl-d2))-2,2′-d4-cyclopropane (30 μmol) resulting in a concentration of approx. 3.5 mM of this substrate in the experiments. The DNP preparation of 1-^13C-1,1-Bis(acetoxy(methyl-d2))-2,2′-d4-cyclopropane was performed as described in example 2.
# Human prostate cancer cells (PC-3) or immortalized human prostate healthy cells were grown in RPMI+10% FBS and antibiotics. Following trypsin harvesting 10 million cells were redissolved in 500 μl phosphate buffer (PBS) and transferred to a 10 mm NMR tube and placed with connecting tubing in a 14.1 T magnet at 37° C.
# Following dissolution in 5 ml phosphate buffer (40 mM pH 7.3), 2 ml of the substrate mixture was injected into 10 million cells in suspension. A series of 20 degree pulses every 2 s (56 scans in total) was acquired. The acquisition was started just before injection of the hyperpolarized substrate. Data are presented as metabolite signals as a function of time or as area under the curve of the metabolite signals.
# [3] = DNP hyperpolarization in the solid state; type: physicochemical; settings: DNP at 1.2 K, 3.35 T, microwave 93.900 GHz
# Protocol: A) Finland radical, carboxylic acid form (0.7 mg, 0.67 μmol) was dissolved in 1-^13C-1,1-Bis(acetoxy(methyl-d2))-2,2′-d4-cyclopropane (45 μl, 50.7 mg, 0.27 mmol). To the solution was added a DMSO solution of the gadolinium complex ([alfa1,alfa4,alfa7-tris[(phenylmethoxy)methyl]-1,4,7,10-tetraazacyclododecane-1,4,7,10-tetraacetato(4-)]gadolinate(1-)]hydrogen) (0.75 mg of a 100 μmol/g solution). The concentration of radical and gadolinium were 15 mM and 1.6 mM respectively.
# B) 30 μmol of a 1-^13C-1,1-Bis(acetoxy(methyl-d2))-2,2′-d4-cyclopropane sample made following the description in example 2.A was hyperpolarized. The composition was hyperpolarised under DNP conditions at 1.2 K in a 3.35 T magnetic field under irradiation with microwave (93.900 GHz). The polarization build-up constant was 750 s. The solid-state polarization was approx. 15%.
# [4] = test system: Rat liver cancer cells (Morris7777); experiment: In cell DNP conversion in rat liver cancer cells, co-polarized with 1-13C-pyruvate; type: cell-based; settings: for AUC (arb. Units), area under the metabolic curve: 10 million cells, approx. 3.5 mM of each substrate, 37 C
# Protocol: (§1) The experiments were performed with a co-polarization of 1-^13C-1,1-Bis(acetoxy(methyl-d2))-2,2′-d4-cyclopropane and 1-^13C-pyruvic acid in equal amounts of compounds (30 μmol) resulting in a concentration of approx. 3.5 mM of each substrate in the experiments. The DNP preparation of 1-^13C-1,1-Bis(acetoxy(methyl-d2))-2,2′-d4-cyclopropane was performed as described in example 2 and the DNP preparation of 1-^13C-pyruvate was performed as described in WO 2006/011809. The two substrates were co-polarized without mixing the substrates.
# Rat liver cancer cells (Morris777) were grown in RPMI+10% FBS and antibiotics. Following trypsin harvesting 10 million cells were redissolved in 500 μl phosphate buffer (PBS) and transferred to a 10 mm NMR tube and placed with connecting tubing in a 14.1 T magnet at 37 C.
# (§2) Following dissolution in 5 ml phosphate buffer (40 mM pH 7.3) with addition of 2.5 μl NaOH to neutralize the pyruvic acid 2 ml of the substrate mixture was injected into 10 million cells in suspension. A series of 20 degree pulses every 2 s (56 scans in total) was acquired. The acquisition was started just before injection of the hyperpolarized substrate. Data are presented as metabolite signals as a function of time or as area under the curve of the metabolite signals.
# [5] = test system: prostate of healthy Copenhagen rats; experiment: DNP-MRI conversion in the healthy prostate of living rats; type: in vivo, rat; settings: intravenous, about 0.4 mmol/kg, n=2 rats
# Protocol: DNP-MRI experiment has been performed on 2 healthy Copenhagen rats, 9 weeks old, with average weight of 180 g.
# 0.24 mmol of a 1-^13C-1,1-Bis(acetoxy(methyl-d2))-2,2′-d4-cyclopropane sample prepared following the description in Example 2A was hyperpolarized according to the conditions reported in example 2.B. The solid sample was then dissolved in 5 ml TRIS buffer (100 mM, pH 7.7) to obtain a hyperpolarized solution with 48 mM substrate concentration and a pH of 7.
# 2.8 ml of the dissolved hyperpolarized 1-^13C-1,1-Bis(acetoxy(methyl-d2))-2,2′-d4-cyclopropane solution was injected intravenously at an injection rate of about 0.25 mL/s through a catheter placed in the tail vein of the animal, resulting in a total administered close of about 0.4 mmol/kg. A time series of 64 NMR spectra separated by 3 s and generated by 10° radiofrequency pulses was acquired starting from 15 s before injection of the hyperpolarized substrate. In order to follow the whole metabolic fate of the molecules and the decay of the hyperpolarized signal. The ^13C MR signal was collected by a 20 mm surface coil placed around the prostate. Spatial localization of the signal has been achieved by combining the limited sensitivity volume of the receiving coil with a slice selective spectroscopic sequence including a single gradient kept on only during the excitation period.
# [6] = test system: Human prostate cancer cells (PC-3); experiment: Carboxyl esterase CE-2 activity by in cell DNP conversion in PC-3 cells, co-polarized with 1-13C-pyruvate; type: cell-based; settings: for AUC (arb. Units), area under the metabolic curve: 10 million cells, approx. 3.5 mM of each substrate, 37 C
# Protocol: as §1
# Human cancer cells (PC-3) were grown in RPMI+10% FBS and antibiotics. Following trypsin harvesting 10 million cells were redissolved in 500 μl phosphate buffer (PBS) and transferred to a 10 mm NMR tube and placed with connecting tubing in a 14.1 T magnet at 37° C.
# as §2
molecule,measurement,setting,value
"1,3-ethyl acetoacetate","T1, 37 C. 14.1 T",[1],27 ± 2
"[2H]C([2H])(O)[13C]([2H])([2H])[N+](C)(C)C [2-13C-1,1,2,2-d4-choline]","T1, 37 C. 14.1 T",[1],43 ± 4
"[2H]C([2H])(OC(C)=O)[13C]1(C([2H])([2H])OC(C)=O)C([2H])([2H])C1([2H])[2H] [1-^13C-1,1-Bis(acetoxy(methyl-d2))-2,2′-d4-cyclopropane]",metabolic conversion in diseased cells (PC-3) relative to healthy cells (PNT-1A),[2],approx. 6 times
same,polarization build-up constant,[3],750 s
same,solid-state polarization,[3],approx. 15%
same,"metabolic conversion relative to hyperpolarized 1-13C pyruvate, comparing the maximum metabolite signal",[4],approx. 15 times
same,liquid state polarization,[1]; 12 s after dissolution,13%
same,"T1, 37 C. 14.1 T",[1],85 ± 4
same,liquid state T1,"[1]; 14.1 T and 37 C, phosphate buffer 40 mM pH 7.3",approx. 85 s
same,hydrolysis in the dissolution process,"[1]; dissolved in 5 ml phosphate buffer (40 mM, pH 7.3)",not hydrolysed
same,uptake and metabolic conversion in rat prostate in vivo,[5],taken up by prostate cells and converted into its hyperpolarized metabolites
same,"metabolic conversion relative to hyperpolarized 1-13C pyruvate, comparing the maximum metabolite signal",[6],more than 3 times
"O=[13C](O)/C=C/[13C](=O)O [1,4-13C2-Fumarate]","T1, 37 C. 14.1 T",[1],35 ± 3
"C[C@H](O)[13C](=O)O [1-13C-lactate, reference compound]","AUC (arb. Units), area under the metabolic curve",[4],282 arb. Units
same,"T1, 37 C. 14.1 T",[1],40 ± 3
same,"AUC (arb. Units), area under the metabolic curve",[6],3766 arb. Units
C[13C](=O)O [1-13C-acetate],"T1, 37 C. 14.1 T",[1],50 ± 3
CC(=O)[13C](=O)O [1-13C-pyruvate],"T1, 37 C. 14.1 T",[1],45 ± 4
"[2H]C([2H])(O)[13C]1(C([2H])([2H])OC(C)=O)C([2H])([2H])C1([2H])[2H] [1-^13C-1-(acetoxy(methyl-d2))-1-(hydroxy(methyl-d2))-2,2′-d4-cyclopropane]",AUC of metabolite relative to that of 1-13C-lactate,[4],~30 times
same,"AUC (arb. Units), area under the metabolic curve",[4],43480 arb. Units
same,AUC of metabolite relative to that of 1-13C-lactate,[6],~6 times
same,"AUC (arb. Units), area under the metabolic curve",[6],20550 arb. Units
N[C@@H](CC[13C](N)=O)C(=O)O [5-13C-glutamine],"T1, 37 C. 14.1 T",[1],22 ± 2
"[2H]C([2H])(O)[13C]1(C([2H])([2H])O)C([2H])([2H])C1([2H])[2H] [1-^13C-1,1-(dihydroxy(methyl-d2))-2,2′-d4-cyclopropane]","AUC (arb. Units), area under the metabolic curve",[4],1559 arb. Units
C[C@H](N)[13C](=O)O [1-13C-alanine],"T1, 37 C. 14.1 T",[1],31 ± 2
"O=[13C](O)CC(O)[13C](=O)O (centres unmarked) [1,4-13C2-malate]","T1, 37 C. 14.1 T",[1],30 ± 3
CC([13CH3])CC(=O)C(=O)O (centres unmarked) [1-13C-2-ketoisocaproate],"T1, 37 C. 14.1 T",[1],35 ± 4
OC[C@H]1O[13CH](O)[C@H](O)[C@@H](O)[C@@H]1O (some centres unmarked) [1-13C-glucose],"T1, 37 C. 14.1 T",[1],20 ± 2
O[13CH2][13C@H]1O[13CH](O)[13C@H](O)[13C@@H](O)[13C@@H]1O (some centres unmarked) [13C6-glucose],"T1, 37 C. 14.1 T",[1],15 ± 2
